From US6784155B1, “Inhibitor and stimulator of stem cell proliferation and uses thereof” (Wellstat Therapeutics Corporation, priority 1996, dated 2004)
No end group written: not given here.

What was measured:
CFU-GEMM [1] = test: CFU-GEMM cycling assay, human umbilical cord blood cells; type: cell-based
Experimental: In order to investigate the ability of purified INPROL from porcine bone marrow to affect cycling on human progenitors, umbilical cord blood cells were obtained. Either the total mononuclear cell fraction obtained after separation on Ficoll or the CD34^+ fraction obtained after fractionation on anti-CD34 affinity columns (CellPro Inc.) was used. Cells were incubated for 48 hours in vitro in the presence of interleukin 3 (IL-3) and stem cell factor (SCF) (100 ng/ml each) in order to ensure that the early stem cells were in cycle. After this preincubation, cycling assays were conducted as described in Example 14 for the mouse except that CFU-GEMM (instead of CFU-MIX) were counted on Day 18 after plating.
The human cord blood CFU-GEMM cycling assay was conducted as in Example 19. Specifically, mononuclear cells were isolated from human umbilical cord blood cells and adjusted to 24×10^4 cells/ml in IMDM tissue culture medium supplemented with 10% FBS, 100 ng/ml kit ligand and 100 ng/ml human IL-3. The cells were incubated for 48 hours at 37° C.
After incubation, cells were washed and resuspended in serun-free NDM at a concentration of 10^6 cells/ml. One ml of cells was added to each of two polypropylene tubes per condition and the cycling assay conducted as in Example 24 for mouse bone marrow. After the Ara C incubation cells were washed with cold NDM and adjusted to 10,000 to 20,000 cells per 0.5 ml IMDM and mixed with 5 ml Methocult H4433 (Stem Cell Technologies). Alternatively, Methocult H4435 methylcellulose medium (Stem Cell Technologies) was used in which case the cell concentration was adjusted to 2500-5000 cells per 0.5 ml IMDM. The cells were plated as in Example 24 and CFU-GEMM colonies scored on days 14-18.

CFU-GEMM [2] = test: CFU-GEMM cycling assay, human bone marrow cells; type: cell-based
Experimental: To assess the bioactivity of recombinant p1-97, the CFU-GEMM cycling assay was used as in Example 18:
CD34^+ stem cells were obtained from Poietic Technologies (Gaithersburg, MD) after purification from human bone marrow by means of a CelUPro column. Cells were incubated for 48 hours with kit ligand and IL-3 and used in a CFU-GEMM cycling assay in Example 26.

CFU-MIX [3] = test: CFU-MIX cycling assay in vitro (Ara C kill); type: cell-based, mouse
Experimental: A similar assay can be performed in vitro, using the cycling status of CFU-MIX instead of CFU-S. The assay is performed as described above for the CFU-S assay except that cytosine arabinoside (Ara C, 30 micrograms/ml) is used as the cycle-specific toxic agent instead of high dose tritiated thymidine (see B. I. Lord in Haemopoiesis—A Practical Approach, N. G. Testa and G. Molineux (Eds.), IRL Press 1993; Pragnell et al. in Culture of Hematopoietic Cells, R. I. Freshney, I. B. Pragnell and M. G. Freshney (Eds.), Wiley Liss 1994) and a mouse strain with high endogenous cycling rates (Balb/c) is used instead of testosterone-treated BDFI mice.
24 hours later (Day 1), varying doses of peptide 43-55 or vehicle were injected i.v. Bone marrow was harvested on Day 2 and the […] cycling assay conducted as in Example 14. Specifically, mice were sacrificed and single cell bone marrow suspensions prepared from the femurs. The cells were washed once and the concentration adjusted to 5×10^6 cells/ml in Fischer medium. For each test condition, one milliliter of cells was added to each of two polypropylene tubes. The tubes were incubated at 37° C. for 3 hours without (“Control”) or with (“Experimental”) the appropriate concentration of test substance. At the end of the incubation, 30 μg/ml of cytosine arabinoside (“Ara C” (Sigma)) was added to half of the tubes and the same volume of Fischer's medium was added to the others. The tubes were incubated for a further 1 hour at 37° C., after which they were placed on ice and washed twice with cold Fischer medium.
The cells were readjusted to 5×10^4-10^6/ml in Fischer's medium and 0.5 ml of cell suspension added to 5 ml of Methocult M3430 methylcellulose medium (Stem Cell Technologies, Vancouver, British Columbia). The mixture was vigorously mixed with a vortex and 1 ml was dispensed into each of five 35 mm dishes. The 35 mm dishes were in turn placed in a covered 150 mm dish with one open 35 mm dish containing sterile water. CFU-MIX colonies were counted with the use of an inverted microscope after 7 days of incubation at 37° C.
Differences in colony number between the tubes treated with medium versus the tubes treated with Ara C represent the percentage of cells in cycle under that condition according to the formula:
a=Number of CFU-MIX from tube incubated with medium alone
b=Number of CFU-MIX from tube incubated with Ara C

CFU-MIX [4] = test: Stimulation of cycling of quiescent murine stem cells, CFU-MIX cycling assay in vitro; type: cell-based, mouse
Experimental: Microgram per milliliter doses of hemoglobin chains, myoglobin and peptides were assayed for stimulation of quiescent stem cells. Bone marrow was obtained from untreated B6D2F1 tested in the CFU-MIX cycling assay as in Example 24. Stem cells isolated from untreated B6D2F1 mice are normally slowly cycling unless stimulated (e.g. by testosterone propionate (cf. Example 1) or chemotherapy such as 5FU (cf. Example 4)) to enter into cycle.

CFU-GEMM [5] = test: CFU-GEMM cycling assay, mobilized human peripheral blood; type: cell-based
Experimental: Peripheral blood was obtained from breast cancer patients undergoing peripheral stem cell mobilization with cyclophosphamide and G-CSF according to standard protocols. Red blood cells were removed with FicolU Hypaque (cells were diluted 1:1 with IMDM and 20 ml layered on top of 16 ml Ficoll and centrifuged at 800 g for 30 minutes; mononuclear cells were removed from the interphase and washed twice in IMDM). In one case mononuclear cells were stored frozen in liquid nitrogen before assay. The mononuclear cells were plated for the CFU-GEMM cycling assay as in Example 26 except that 2.5-5×10^5 cells were plated per dish.

[6] = Table 32, cord blood mononuclear cells, 100 ng/ml
[7] = Table 33, CD34+ stem cells from human bone marrow, concentration printed only as (ng/ml)

## FPHFDLSHGSAQV [Peptide 43-55, amino acids 43-55 of human alpha hemoglobin]
CFU-GEMM [1]; Table 32, cord blood mononuclear cells, 1 ng/ml
  % Kill: 20%
CFU-GEMM [1]; Table 32, cord blood mononuclear cells, 10 ng
  % Kill: 12%
CFU-GEMM [1]; [6]
  % Kill: 5%
CFU-GEMM [2]; [7]
  % Kill: 0%
CFU-MIX [3]; Table 17, 1 ng/ml
  % Kill: 11%
CFU-MIX [3]; Table 17, 10 ng/ml
  % Kill: 18%
CFU-MIX [3]; Table 17, 100 ng/ml
  % Kill: 2%
CFU-MIX [3]; Table 18, 100 ng/ml
  % Kill: 5%
CFU-MIX [3]; Table 24, 1 ng/ml
  % Kill: 8%
CFU-MIX [3]; Table 27, Balb/c bone marrow, 1 ng/ml
  % Kill: 8%
CFU-MIX [3]; Table 28, 10 ng/ml, alone
  % Kill: 6%
CFU-MIX [3]; Table 31, 10 ng/ml, alone
  % Kill: 8%
CFU-MIX [4]; Table 40, untreated B6D2F1 bone marrow, 10 μg/ml
  % Kill: 26%
CFU-GEMM [5]; Table 35, Patient #2, 10 ng/ml
  % Kill: 0%
CFU-GEMM [5]; Table 36, Patient #3, cells stored frozen before assay, 0.1 ng/ml
  % Kill: 23%
CFU-GEMM [5]; Table 36, Patient #3, cells stored frozen before assay, 1.0 ng/ml
  % Kill: 0%
CFU-GEMM [5]; Table 36, Patient #3, cells stored frozen before assay, 10 ng/ml
  % Kill: 15%

## Human alpha chain: purified, non-recombinant human alpha hemoglobin chain isolated by reversed-phase HPLC
CFU-GEMM [1]; Table 16, cord blood mononuclear cells, 100 ng/ml
  % Kill: −23%
CFU-GEMM [1]; [6]
  % Kill: 0%
CFU-GEMM [2]; Table 21, human bone marrow mononuclear cells, 100 ng/ml
  % Kill: 11%
CFU-GEMM [2]; [7]
  % Kill: 0%
CFU-MIX [3]; Table 11, bone marrow from Balb/c mice, 100 ng/ml
  % Kill: −1%
CFU-MIX [3]; Table 13, bone marrow from Balb/c mice, 100 ng/ml
  % Kill: 19%
CFU-MIX [3]; Table 20, Balb/c bone marrow, 100 ng/ml
  % Kill: 12%
CFU-MIX [3]; Table 25, Balb/c bone marrow, 100 ng/ml
  % Kill: 0%
CFU-MIX [3]; Table 28, 100 ng/ml, alone
  % Kill: 0%
CFU-MIX [3]; Table 30, 100 ng/ml
  % Kill: 0%
CFU-MIX [3]; Table 31, 100 ng/ml, alone
  % Kill: 0%
CFU-MIX [4]; Table 37, untreated B6D2F1 bone marrow, 1 μg/ml
  % Kill: 0%
CFU-MIX [4]; Table 37, untreated B6D2F1 bone marrow, 10 μg/ml
  % Kill: 24%
CFU-MIX [4]; Table 37, untreated B6D2F1 bone marrow, 100 μg/ml
  % Kill: 40%
CFU-MIX [4]; Table 39, untreated B6D2F1 bone marrow, 100 μg/ml
  % Kill: 41%
CFU-MIX [4]; Table 40, untreated B6D2F1 bone marrow, 100 μg/ml
  % Kill: 30%
CFU-GEMM [5]; Table 34, Patient #1, 100 ng/ml
  % Kill: 0%
CFU-GEMM [5]; Table 35, Patient #2, concentration printed only as (ng/ml)
  % Kill: 2%
